For the assay, the target named is T1, mAChR M1 (UniProt P11229).
T1 sequence (P11229 1-460): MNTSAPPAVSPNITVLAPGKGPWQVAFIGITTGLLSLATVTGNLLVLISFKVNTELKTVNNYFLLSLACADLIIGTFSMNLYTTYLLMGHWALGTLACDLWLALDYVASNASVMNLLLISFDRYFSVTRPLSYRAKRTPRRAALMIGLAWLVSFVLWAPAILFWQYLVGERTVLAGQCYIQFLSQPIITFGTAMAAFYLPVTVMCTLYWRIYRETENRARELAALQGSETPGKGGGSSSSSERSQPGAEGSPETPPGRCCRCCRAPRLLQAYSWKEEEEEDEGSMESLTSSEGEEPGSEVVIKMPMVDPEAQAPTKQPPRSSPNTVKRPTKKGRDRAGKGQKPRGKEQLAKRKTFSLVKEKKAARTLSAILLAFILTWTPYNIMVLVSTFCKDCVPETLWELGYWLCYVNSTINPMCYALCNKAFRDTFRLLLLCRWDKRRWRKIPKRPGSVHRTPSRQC
Kind of assay: mAChR M1 cell-based functional assay (calcium mobilization, potentiation of EC20 acetylcholine response). Particulars: for Emax: % ACh maximum at 30 μM; for EC50: CHO-K1 cells expressing mAChR M1, increase in EC20 acetylcholine response, >10 μM estimated where no plateau in the curve. On the procedure: Chinese hamster ovary (CHO-K1) cells stably expressing rat (r)M1 were purchased from the American Type Culture Collection and cultured according to their indicated protocol. […] To make stable rM2, hM2, rM3, hM4, and rM4 cell lines for use in calcium mobilization assays, these cells also were stably transfected with a chimeric G-protein (Gqi5) (provided by B. R. Conklin, University of California, San Francisco) using Lipofectamine 2000. rM1, hM1, rM3, hM3, rM5, and hM5 cells were grown in Ham's F-12 medium containing 10% heat-inactivated fetal bovine serum (FBS), 20 mM HEPES, and 50 μg/mL G418 sulfate. rM2-Gqi5, hM2-Gqi5, and hM4-Gqi5 cells were grown in the same medium also containing 500 μg/mL Hygromycin B. Stable rM4-Gqi5 cells were grown in DMEM containing 10% heat-inactivated FBS, 20 mM HEPES, 400 μg/mL G418 sulfate, and 500 μg/mL Hygromycin B.
For high throughput measurement of agonist-evoked increases in intracellular calcium, CHO-K1 cells stably expressing muscarinic receptors were plated in growth medium lacking G418 and hygromycin at 15,000 cells/20 μL/well in Greiner 384-well black-walled, tissue culture (TC)-treated, clear-bottom plates (VWR). Cells were incubated overnight at 37° C. and 5% CO2. […] Compound master plates were formatted in an 11 point CRC format (1:3 dilutions) in 100% DMSO with a starting concentration of 10 mM using the BRAVO liquid handler (Agilent). Test compound CRCs were then transferred to daughter plates ([…]) using the Echo acoustic plate reformatter (Labcyte, Sunnyvale, Calif.) and then diluted into assay buffer (40 μL) to a 2× stock using a Thermo Fisher Combi (Thermo Fisher Scientific, Waltham, Mass.).
Calcium flux was measured using the Functional Drug Screening System (FDSS) 6000 (Hamamatsu Corporation, Tokyo, Japan) as an increase in the fluorescent static ratio. Compounds were applied to cells (20 μL, 2×) using the automated system of the FDSS 6000 at 4 s into the 300 s protocol and the data were collected at 1 Hz. […] Agonist activity was analyzed as a concentration-dependent increase in calcium mobilization upon compound addition. Positive allosteric modulator activity was analyzed as a concentration-dependent increase in the EC20 acetylcholine response. Antagonist activity was analyzed as a concentration-dependent decrease in the EC80 acetylcholine response. Concentration-response curves were generated using a four-parameter logistical equation in XLfit curve fitting software (IDBS, Bridgewater, N.J.) for Excel (Microsoft, Redmond, Wash.) or Prism (GraphPad Software, Inc., San Diego, Calif.).
The calcium mobilization assay was also used to determine “efficacy”. In the context of the assays carried out for the data in Table II, “efficacy” (% ACh at 30 μM) is defined as the maximal response in the calcium flux as determined by the sigmoidal curve fit of the concentration response curve, or in the absence of an acceptable curve fit, the response recorded at 30 μM test compound, stated as a percentage of the response elicited by a concentration of Ach that induces approximately 80% of a maximal (i.e. saturating) ACh response.
Substituted benzylspiroindolin-2-one analogs were synthesized as described above. Activity (EC50 and Emax) was determined in the mAChR M1 cell-based functional assay as described above and the data are shown in Table III. The compound number corresponds to the compound numbers used in Tables I and II.

For `CN1CCC2(C1)C(=O)N(Cc1ccc(-c3cnn(C)c3)cc1F)c1ccccc12` (racemic) [Compound B18, 1-(2-fluoro-4-(1-methyl-1H-pyrazol-4-yl)benzyl)-1′-methylspiro[indoline-3,3′-pyrrolidin]-2-one], the Emax is 62% and the EC50 is 2900 nM.
In the same order, the values of `Cn1cc(-c2ccc(CN3C(=O)C4(CCN(C5CCCCC5)C4)c4ccccc43)c(F)c2)cn1` (single isomer, unassigned) [Compound B2] are 73% and 1500 nM.
In the same order, the values of `CN1CCC2(C1)C(=O)N(Cc1ccc(-c3cnn(C)c3)cc1F)c1ccccc12` (single isomer, unassigned) [Compound B16, 1-(2-fluoro-4-(1-methyl-1H-pyrazol-4-yl)benzyl)-1′-methylspiro[indoline-3,3′-pyrrolidin]-2-one] are 46% and 2700 nM.
The matching figures for `CN1CCC2(C1)C(=O)N(Cc1ccc(-c3cnn(C)c3)cc1F)c1ccccc12` (single isomer, unassigned) [Compound B31, 1-(2-fluoro-4-(1-methyl-1H-pyrazol-4-yl)benzyl)-1′-methylspiro[indoline-3,3′-pyrrolidin]-2-one]: 76% and 3800 nM.
As to `Cn1cc(-c2ccc(CN3C(=O)C4(CCN(C5CCCOC5)C4)c4ccccc43)c(F)c2)cn1` (single isomer, unassigned) [Compound B34], the Emax turned out to be 28% and the half-maximal effective concentration (EC50) was 3900 nM.
In the same order, the values of `Cn1cc(-c2ccc(CN3C(=O)C4(CCN(C5CCCOC5)C4)c4ccccc43)c(F)c2)cn1` (single isomer, unassigned) [Compound B35] are 57% and 3900 nM.
In the same order, the values of `Cn1cc(-c2ccc(CN3C(=O)C4(CCN(C(=O)c5ccccc5)C4)c4ccccc43)c(F)c2)cn1` (single isomer, unassigned) [Compound B45] are 38% and 5300 nM.
In the same order, the values of `Cn1cc(-c2ccc(CN3C(=O)C4(CCN(C(=O)c5ccccc5)C4)c4ccccc43)c(F)c2)cn1` (single isomer, unassigned) [Compound B47] are 38% and 5800 nM.
For the compound `Cn1cc(-c2ccc(CN3C(=O)C4(CCN(C5CCCCC5)C4)c4ccccc43)c(F)c2)cn1` (single isomer, unassigned) [Compound B58], the Emax is given as 39% and the EC50 is > 10000 nM.
Regarding `Cn1cc(-c2ccc(CN3C(=O)C4(CCN(C5CCCOC5)C4)c4ccccc43)c(F)c2)cn1` (single isomer, unassigned) [Compound B67], the Emax stood at 44% and the EC50 was > 10000 nM.
Consider `Cn1cc(-c2ccc(CN3C(=O)C4(CCN(C5CCCOC5)C4)c4ccccc43)c(F)c2)cn1` (single isomer, unassigned) [Compound B68], for which the maximal response (Emax) is given as 60% and the 50% effective concentration (EC50) was > 10000 nM.
Turning to `Cn1cc(-c2ccc(CN3C(=O)C4(CCN(CC5CCCCC5)C4)c4ccccc43)c(F)c2)cn1` (single isomer, unassigned) [Compound B72], the Emax is 36% and the EC50 is > 10000 nM.
With `Cn1cc(-c2ccc(CN3C(=O)C4(CCN(CC5CCCCC5)C4)c4ccccc43)c(F)c2)cn1` (single isomer, unassigned) [Compound B73], the maximum response (Emax) was <20% and the EC50 was > 10000 nM.
The matching figures for `Cn1cc(-c2ccc(CN3C(=O)C4(CCN(C5CCCC5)C4)c4ccccc43)cc2)cn1` (stereo not drawn) [Compound B1]: 43% and 1300 nM.
The matching figures for `Cn1cc(-c2ccc(CN3C(=O)C4(CCN(C5CCCC5)C4)c4ccccc43)c(F)c2)cn1` (stereo not drawn) [Compound B3, 1′-cyclopentyl-1-(2-fluoro-4-(1-methyl-1H-pyrazol-4-yl)benzyl)spiro[indoline-3,3′-pyrrolidin]-2-one]: 61% and 1600 nM.
In the same order, the values of `Cn1cc(-c2cc(F)c(CN3C(=O)C4(CCN(C5CCCC5)C4)c4ccccc43)c(F)c2)cn1` (stereo not drawn) [Compound B4] are 72% and 1700 nM.
With `Cn1cc(-c2ccc(CN3C(=O)C4(CCN(C5CCCCC5)C4)c4ccccc43)c(F)c2)cn1` (stereo not drawn) [Compound B5], the Emax was 66% and the EC50 is 1800 nM.
The matching figures for `Cn1cc(-c2ccc(CN3C(=O)C4(CCN(c5ncccn5)C4)c4ccccc43)c(F)c2)cn1` (stereo not drawn) [Compound B7, 1-(2-fluoro-4-(1-methyl-1H-pyrazol-4-yl)benzyl)-1′-(pyrimidin-2-yl)spiro[indoline-3,3′-pyrrolidin]-2-one]: 63% and 1900 nM.
In the same order, the values of `Cn1cc(-c2ccc(CN3C(=O)C4(CCN(C5CCCC5)C4)c4ccccc43)cc2F)cn1` (stereo not drawn) [Compound B8] are 36% and 2000 nM.
In the same order, the values of `Cn1cc(-c2ccc(CN3C(=O)C4(CCN(C5CCCCC5F)CC4)c4ccccc43)c(F)c2)cn1` (stereo not drawn) [Compound B9] are 32% and 2300 nM.
As to `Cn1cc(-c2ccc(CN3C(=O)C4(CCN(C5CCOCC5)C4)c4ccccc43)c(F)c2)cn1` (stereo not drawn) [Compound B10], the Emax is on record as 61% and the EC50 is 2400 nM.
Take `Cn1cc(-c2ccc(CN3C(=O)C4(CCN(CC5CC5)C4)c4ccccc43)c(F)c2)cn1` (stereo not drawn) [Compound B11]: the Emax came to 60% and the EC50 was 2400 nM.
In the same order, the values of `Cn1cc(-c2ccc(CN3C(=O)C4(CCN(C5CCCC5)C4)c4ccccc43)c(F)c2F)cn1` (stereo not drawn) [Compound B12] are 52% and 2400 nM.
With `Cn1cc(-c2cc(F)c(CN3C(=O)C4(CCN(C5CCCC5)C4)c4ccccc43)cc2F)cn1` (stereo not drawn) [Compound B13], the Emax is 62% and the EC50 is 2400 nM.
For `Cn1cc(-c2ccc(CN3C(=O)C4(CCN(C5CCC5)C4)c4ccccc43)c(F)c2)cn1` (stereo not drawn) [Compound B14], the Emax amounted to 58% and the EC50 was 2600 nM.
Take `Cn1cc(-c2ccc(CN3C(=O)C4(CCN(C5CCSCC5)C4)c4ccccc43)c(F)c2)cn1` (stereo not drawn) [Compound B15]: the Emax was 58% and the EC50 was 2700 nM.
As to `CCn1cc(-c2ccc(CN3C(=O)C4(CCN(C5CCCC5)C4)c4ccccc43)c(F)c2)cn1` (stereo not drawn) [Compound B17], the Emax was 45% and the EC50 is 2800 nM.
Take `Cn1cc(-c2ccc(CN3C(=O)C4(CCN(C5CCCOC5)C4)c4ccccc43)c(F)c2)cn1` (stereo not drawn) [Compound B19]: the Emax is given as 62% and the EC50 is 2900 nM.
As for `Cn1cc(-c2ccc(CN3C(=O)C4(CCN(C5CCCCC5F)C4)c4ccccc43)c(F)c2)cn1` (stereo not drawn) [Compound B20], the maximum response (Emax) is 67% and the concentration giving a half-maximal response (EC50) is 3000 nM.
The matching figures for `Cn1cc(-c2ccc(CN3C(=O)C4(CCN(C5CCCCCC5)C4)c4ccccc43)c(F)c2)cn1` (stereo not drawn) [Compound B21]: 51% and 3000 nM.

Source of the values: patent US9073935B2, “Substituted benzylspiroindolin-2-one analogs as positive allosteric modulators of the muscarinic acetylcholine receptor M1” (VANDERBILT UNIVERSITY, priority 2011, dated 2015).
